# Experimental data from US20220274961A1, “SUBSTITUTED FUSED BI- OR TRI- HETEROCYCLIC COMPOUNDS AS EHMT2 INHIBITORS” (priority 2016, published 2022).
# Where two headings read alike, the source gives them in different places.
# Experiments:
# [1] = molecular target: T1, human EHMT2 913-1193 (Homo sapiens, UniProt Q96KQ7); assay: biochemical
# T1 construct: recombinant purified human EHMT2 913-1193, Viva; purchased Viva
# T1 sequence (Q96KQ7 913-1193): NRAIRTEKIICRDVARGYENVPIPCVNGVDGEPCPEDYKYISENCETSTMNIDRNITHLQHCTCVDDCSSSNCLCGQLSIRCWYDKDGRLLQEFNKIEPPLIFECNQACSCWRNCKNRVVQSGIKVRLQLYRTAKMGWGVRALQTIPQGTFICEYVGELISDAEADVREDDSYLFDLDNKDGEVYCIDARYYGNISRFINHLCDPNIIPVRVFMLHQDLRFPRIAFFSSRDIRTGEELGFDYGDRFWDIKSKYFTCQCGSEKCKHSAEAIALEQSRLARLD
# Excerpt: Biotinylated histone peptides were synthesized by Biopeptide and HPLC-purified to >95% purity. Streptavidin Flashplates and seals were purchased from PerkinElmer and 384 Well V-bottom Polypropylene Plates were from Greiner. ^3H-labeled S-adenosylmethionine (^3H-SAM) was obtained from American Radiolabeled Chemicals with a specific activity of 80 Ci/mmol. Unlabeled SAM and S-adenosylhomocysteine (SAH) were obtained from American Radiolabeled Chemicals and Sigma-Aldrich respectively. […] 384-well Flashplates and 96-well filter binding plates were read on a TopCount microplate reader (PerkinElmer). Compound serial dilutions were performed on a Freedom EVO (Tecan) and spotted into assay plates using a Thermo Scientific Matrix PlateMate (Thermo Scientific). Reagent cocktails were added by Multidrop Combi (Thermo Scientific).
# General Procedure for EHMT2 Enzyme Assay on Histone Peptide Substrate. 10-point curves of test compounds were made on a Freedom EVO (Tecan) using serial 3-fold dilutions in DMSO, beginning at 2.5 mM (final top concentration of compound was 50 μM and the DMSO was 2%). A 1 μL aliquot of the inhibitor dilution series was spotted in a polypropylene 384-well V-bottom plate (Greiner) using a Thermo Scientific Matrix PlateMate (Thermo Scientific). […] Reactions were incubated for 60 minutes at room temperature and quenched with 10 μL per well of 400 μM unlabeled SAM, then transferred to a 384-well streptavidin Flashplate (PerkinElmer) and washed in a Biotek ELx-405 well washer with 0.1% Tween after 60 minutes. 384-well Flashplates were read on a TopCount microplate reader (PerkinElmer).
# [2] = molecular target: T2, EHMT1 (Homo sapiens, UniProt Q9H9B1); assay: EHMT1 PEP; type: biochemical
# T2 sequence (Q9H9B1 1-1298): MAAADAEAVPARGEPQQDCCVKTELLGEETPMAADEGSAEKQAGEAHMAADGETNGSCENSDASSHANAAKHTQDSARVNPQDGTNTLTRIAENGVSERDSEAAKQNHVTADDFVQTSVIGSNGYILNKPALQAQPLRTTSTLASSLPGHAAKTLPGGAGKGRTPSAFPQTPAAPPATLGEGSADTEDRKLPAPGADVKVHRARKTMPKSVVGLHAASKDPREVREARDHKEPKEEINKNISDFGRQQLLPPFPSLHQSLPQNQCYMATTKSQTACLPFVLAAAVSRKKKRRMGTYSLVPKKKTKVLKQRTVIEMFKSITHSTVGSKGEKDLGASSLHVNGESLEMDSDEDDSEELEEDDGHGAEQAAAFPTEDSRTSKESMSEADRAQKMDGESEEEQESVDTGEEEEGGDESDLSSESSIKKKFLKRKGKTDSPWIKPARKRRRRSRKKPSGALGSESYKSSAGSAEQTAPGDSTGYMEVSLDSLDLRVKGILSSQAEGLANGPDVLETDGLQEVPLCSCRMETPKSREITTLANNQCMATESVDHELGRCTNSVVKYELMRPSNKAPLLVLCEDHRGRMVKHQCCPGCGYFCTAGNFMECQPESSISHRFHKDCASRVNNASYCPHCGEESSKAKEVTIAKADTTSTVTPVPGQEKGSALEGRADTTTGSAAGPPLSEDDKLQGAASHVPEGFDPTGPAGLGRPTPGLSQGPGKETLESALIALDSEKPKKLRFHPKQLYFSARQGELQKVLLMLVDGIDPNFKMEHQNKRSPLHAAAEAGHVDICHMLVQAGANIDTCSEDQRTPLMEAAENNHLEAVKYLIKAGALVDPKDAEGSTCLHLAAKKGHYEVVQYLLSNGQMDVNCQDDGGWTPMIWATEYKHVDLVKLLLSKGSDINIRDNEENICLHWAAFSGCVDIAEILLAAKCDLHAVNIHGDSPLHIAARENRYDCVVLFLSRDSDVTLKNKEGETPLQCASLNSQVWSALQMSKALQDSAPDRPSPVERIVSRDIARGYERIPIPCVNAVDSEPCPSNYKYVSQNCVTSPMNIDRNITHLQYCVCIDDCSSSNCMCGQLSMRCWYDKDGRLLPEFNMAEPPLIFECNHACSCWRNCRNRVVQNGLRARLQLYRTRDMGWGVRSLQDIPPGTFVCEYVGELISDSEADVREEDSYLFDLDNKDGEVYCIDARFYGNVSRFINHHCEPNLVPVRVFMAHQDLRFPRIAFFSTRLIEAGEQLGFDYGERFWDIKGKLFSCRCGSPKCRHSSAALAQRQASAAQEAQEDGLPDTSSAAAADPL
# [3] = recombinant human EHMT2 913-1193, histone H3 1-15 peptide, 3H-SAM, balanced conditions, read-out: EHMT2 PEP (IC50 μM)
smiles,measurement,setting,value
"COc1cc2[nH]c(N)nc2cc1OCCCN1CCCC1 [Compound 1, 6-methoxy-5-(3-(pyrrolidin-1-yl)propoxy)-1H-benzo[d]imidazol-2-amine]",IC50,[1]; [3],< 0.1 µM
same,IC50,[2],< 0.1 µM
"COc1cc2c(cc1OCCCN1CCCC1)nc(N)n2C [Compound 2, 6-methoxy-1-methyl-5-(3-(pyrrolidin-1-yl)propoxy)-1H-benzo[d]imidazol-2-amine]",IC50,[1]; [3],< 0.1 µM
same,IC50,[2],< 0.1 µM
"COc1cc2c(cc1OCCCN1CCCC1)nc(N)n2C1CCCC1 [Compound 3, 1-cyclopentyl-6-methoxy-5-(3-(pyrrolidin-1-yl)propoxy)-1H-benzo[d]imidazol-2-amine]",IC50,[1]; [3],< 0.1 µM
same,IC50,[2],< 0.1 µM
"COc1cc2c(cc1OCCCN1CCCC1)N=C(N)C21CCOCC1 [Compound 5, 5-methoxy-6-(3-(pyrrolidin-1-yl)propoxy)-2′,3′,5′,6′-tetrahydrospiro[indole-3,4′-pyran]-2-amine]",IC50,[1]; [3],< 0.1 µM
same,IC50,[2],< 0.1 µM
"COc1cc2sc(N)nc2cc1OCCCN1CCCC1 [Compound 6, 6-methoxy-5-[3-(pyrrolidin-1-yl)propoxy]-1,3-benzothiazol-2-amine]",IC50,[1]; [3],1 to 10 µM
same,IC50,[2],1 to 10 µM
"COc1cc2c(cc1OCCCN1CCCC1)N=C(N)C21CCOC1 (stereo not shown) [Compound 7, 5′-methoxy-6′-(3-(pyrrolidin-1-yl)propoxy)-4,5-dihydro-2H-spiro[furan-3,3′-indol]-2′-amine]",IC50,[1],< 0.1 µM
same,IC50,[2],< 0.1 µM
"CNc1nc2cc(OCCCN3CCCC3)c(OC)cc2n1C [Compound 8, 6-methoxy-N,1-dimethyl-5-(3-(pyrrolidin-1-yl)propoxy)-1H-benzo[d]imidazol-2-amine]",IC50,[1]; [3],< 0.1 µM
same,IC50,[2],< 0.1 µM
"CCN1CC[C@@H](COc2cc3nc(N)n(C4CCCC4)c3cc2OC)C1 [Compound 9, 1-cyclopentyl-5-[[(3R)-1-ethylpyrrolidin-3-yl]methoxy]-6-methoxy-1H-1,3-benzodiazol-2-amine]",IC50,[1]; [3],< 0.1 µM
same,IC50,[2],< 0.1 µM
"CCN1CC(COc2cc3nc(N)n(C4CCCC4)c3cc2OC)C1 [Compound 10, 1-cyclopentyl-5-((1-ethylazetidin-3-yl)methoxy)-6-methoxy-1H-benzo[d]imidazol-2-amine]",IC50,[1]; [3],0.1 to 1 µM
same,IC50,[2],< 0.1 µM
"COc1cc2c(cc1OCCCN1CCCC1)nc(N)n2CC(F)(F)F [Compound 11, 6-methoxy-5-(3-(pyrrolidin-1-yl)propoxy)-1-(2,2,2-trifluoroethyl)-1H-benzo[d]imidazole-2-amine]",IC50,[1]; [3],0.1 to 1 µM
same,IC50,[2],0.1 to 1 µM
"COc1cc2c(cc1OCCCN1CCCC1)nc(NCC(F)(F)F)n2C [Compound 12, 6-methoxy-1-methyl-5-(3-(pyrrolidin-1-yl)propoxy)-N-(2,2,2-trifluoroethyl)-1H-benzo[d]imidazol-2-amine]",IC50,[1]; [3],1 to 10 µM
same,IC50,[2],1 to 10 µM
"CNc1nc2cc(OCCCN3CCCC3)c(OC)cc2n1C1CCOCC1 [Compound 13, 6-methoxy-N-methyl-5-(3-(pyrrolidin-1-yl)propoxy)-1-(tetrahydro-2H-pyran-4-yl)-1H-benzo[d]imidazol-2-amine]",IC50,[1]; [3],< 0.1 µM
same,IC50,[2],< 0.1 µM
COc1cc2c(cc1OCCCN1CCCC1)nc(N)n2CC1CCOCC1 [Compound 18],IC50,[1]; [3],0.1 to 1 µM
same,IC50,[2],0.1 to 1 µM
COc1cc2c(cc1OCCCN1CCCC1)nc(N)n2C(C)C [Compound 19],IC50,[1]; [3],< 0.1 µM
same,IC50,[2],< 0.1 µM
"COc1cc2c(cc1OCCCN1CCCC1)nc(C)n2C [Compound 21, 6-methoxy-1,2-dimethyl-5-(3-(pyrrolidin-1-yl)propoxy)-1H-benzo[d]imidazole]",IC50,[1]; [3],1 to 10 µM
same,IC50,[2],1 to 10 µM
"COc1cc2c(cc1OCCCN1CCCC1)nc(C1CCCC1)n2C [Compound 22, 2-cyclopentyl-6-methoxy-1-methyl-5-(3-(pyrrolidin-1-yl)propoxy)-1H-benzo[d]imidazole]",IC50,[1]; [3],1 to 10 µM
same,IC50,[2],1 to 10 µM
"COc1cc2c(cc1OCCCN1CCCC1)nc(C)n2C1CCCC1 [Compound 23, 1-cyclopentyl-6-methoxy-2-methyl-5-(3-(pyrrolidin-1-yl)propoxy)-1H-benzo[d]imidazole]",IC50,[1]; [3],0.1 to 1 µM
same,IC50,[2],1 to 10 µM
